# Laboratory results from PMC9411606, “Control cell migration by engineering integrin ligand assembly” (Nature Communications, 2022).
# “Also recorded” adds a separate entry of the source.
# What was measured:
# Type in all cases: cell-based, human
# [1] = system: Phospho-Myosin Light Chain 2 (Thr18/Ser19) (pMLC) in HuH-7 cells; assay: Western blotting pMLC; conditions: relative to Ctrl = 1, 12 hr, representative blot
# Protocol: Protein lysates were prepared in ice-cold RIPA lysis, and extraction buffer (Thermo Scientific) supplemented with 1% Halt Protease Inhibitor (Thermo Scientific) and 1% Halt Phosphatase inhibitor (Thermo Scientific). Cells were scraped off from the culture surface using a cold plastic cell scraper, and the cell suspension was then gently transferred into a pre-cooled microcentrifuge tube and maintained on ice for 30 min with constant agitation before centrifuged at 21000 × g for 20 min. The supernatant was then transferred to a new tube, and the protein concentration of the supernatant was quantified according to the Pierce™ BCA Protein Assay Kit (Thermo Scientific). The rest of the supernatant was mixed with 4x laemmli sample buffer (Bio-Rad) in a 1:3 ratio and boiled at 100 °C for 10 min. Lysates can be aliquoted and stored at −80 °C freezer. When running the gel, 30 μg of protein was loaded into each well of the SDS-PAGE gels, along with a molecular weight marker (Bio-Rad). The gel was run for 2 hr at constantly 100 V to separate the proteins based on the molecular weight. The proteins were then transferred from the SDS-gel to a PVDF membrane (Bio-Rad) using a Transfer-blot turbo system (Bio-Rad). […] Protein bands were quantified by measuring peak areas using ImageJ. […]
# [2] = system: integrin α3β1 expressing cells (HuH-7, HeLa, HepG2, A549, MKN1, and U-87 MG); assay: Wound healing assay, integrin α3β1 expressing cells; conditions: 10-200 µM
# Protocol: (§1) Healthy cells were seeded in 96-well Image Lock plates (Essen Bioscience, UK). Each well contained 2 ×10^4 to 5 × 10^4 cells in 100 μL of complete cell culture medium. Cell monolayer with approximately 90% confluence formed after 12 hr and cells were next starved in serum-free culture medium for 12 hrs. Homogenous scratch wounds with a width of about 700 μm were made by an Essen BioScienceWound Maker. The detached cells were washed with Dulbecco’s Buffered Saline (DPBS, Gibco) 3 times. Cells were incubated with 100 μL of culture medium containing 0.5 % FBS and desired concentration of each peptide. Wound closure was monitored by an IncucyteS3 (Essen Bioscience) with a 10x objective. Images for each well were acquired every 2 hr to 8 hr for 2 days or until the wounds were closed completely. The wound healing rate was quantified by Incucyte Scratch Wound Analysis Module (Essen Bioscience). The experiments were repeated at least 3 times, and the results were presented as mean ± standard deviation of at least 3 independent experiments.
# [3] = system: cells expressing integrin α3β1; assay: Cell adhesion assay, cells expressing integrin α3β1; conditions: coated with 100 µM, 1 h at 37 °C, n = 30
# Protocol: The 96-well microplates wells were coated with peptide assemblies (the concentration of FFFIKLLI was kept at 100 μM constantly) for 12 hr at 37 °C before blocked with the Blocking Buffer (2% BSA, 1 mM CaCI2 and 1 mM MnCI2 in PBS) for 1 hr at 37 °C. Cells were collected from culture dishes and suspended in the Blocking Buffer containing anti-laminin-5 (P3H9-2, MAB1947, Chemicon, 5 μg/ml), anti-fibronectin (IST-9, ab6328, Abcam, 20 μg/ml) or IgG isotype control (20 μg/ml, Abcam) before immediately seeded to the coated well (20,000 cells/well) and allowed to incubate at 37 °C for 1 h. The wells were washed for three times with the Blocking Buffer and the phase-contrast images were captured by IncucyteS3 (Essen Bioscience) with a 10× objective.
# [4] = system: MCF-7 and Ect1/E6E7 cells; assay: Wound healing assay, cells lacking integrin α3β1; conditions: 10-200 µM, 48 hr
# Protocol: as §1
# [5] = system: RhoA in HuH-7 cells (DORA-RhoA); assay: RhoA activity by FRET
# From the text: (§2) The mGFP-paxillin expression vector was a gift from A. Kusumi (Okinawa Institute of Science and Technology, Japan). pGFP-FAK and pEGFP-vinculin were gifts from Kenneth Yamada (RRID: Addgene_50513 and Addgene¬_50515)[39], EGFP-talin, mVenus-Integrin-Beta1 and mRuby-Lifeact-7 was a gift from Michael Davidson (RRID: Addgene_54560). pEGFPC1/Gg Vinculin 1-258 (akaVD1) was a gift from S. Craig (RRID: Addgene_46270)[40]. The Rac1 FRET Sensor, pCAGGS-RaichuEV-Rac1was generously provided by K. Aoki (National Institute for Basic Biology, Japan)[41] and the RhoA FRET sensor, DORA-RhoA was generously provided by Yi I. Wu (University of Connecticut Health Center, USA)[42]. The expression vectors for Rac1/Tiam1 activation system (Lyn11-linker-FRB, YFP-FKBP, YFP-FKBP-linker-Tiam1, and pTriEx-PA-Rac1) was generously provided by T. Inoue (Johns Hopkins University, USA)[43].
# [6] = system: Rac1 in HuH-7 cells (RaichuEV-Rac1); assay: Rac1 activity by FRET
# From the text: as §2
# [7] = system: FAK Y397 phosphorylation in HuH-7 cells; assay: Western blotting FAK / pY397 FAK
# [8] = relative to Ctrl = 1, 12 hr, representative blot
sequence,measurement,setting,value
FFFIKLLI [assembling ligand: FFF coupled to the N-terminus of IKLLI; self-assembles into nanofilaments],pMLC band,[1],0.17
same,effect on cell migration,[2],suppression effect
same,adherence to FFFIKLLI-coated dishes,[3],remained adhered to the substrate
same,effect on cell migration,[4],negligible influence
same,"RhoA activity, FRET/CFP","[5]; 12 hr, n = 50 cells, mean",1.263
same,RhoA activity,[5]; HuH-7,great inhibition; also recorded: suppressed RhoA activity; also recorded: global inhibition
same,"Rac1 activity, FRET/CFP","[6]; 12 hr, n = 50 cells, mean",1.262
same,Rac1 activity,[6]; HuH-7,great inhibition; also recorded: global inhibition
same,FAK Y397 phosphorylation,"[7]; HuH-7, 12 hr, n = 9",reduction
same,FAK band,[7]; [8],0.87
same,pY397FAK band,[7]; [8],0.34
